The values below come from ChEMBL document CHEMBL1201862, “PubChem BioAssay data set” (2004).

Among the test systems are LXFL 529; RXF 631; DLD-1; HOP-18; SNB-78; DMS-114; DMS-273; KM-20L2; XF498.
Test in all cases: NCI-60 cell line screen, 48 h

Each structure is given as a SMILES string.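 Briefly, cells in 96-well plates were exposed to five compound concentrations for 48 h, and endpoints were estimated by linear interpolation. At the GI50, growth is halved.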 Activity calls are given as the source filed them. Rule as the data show it: active = GI50 up to about 1.1 µM and inactive = higher. Some results are limits rather than exact numbers.

In the case of `O=C(N/C(=C\c1ccc(/C=C(\NC(=O)c2ccccc2)c2nc3ccccc3s2)cc1)c1nc2ccccc2s1)c1ccccc1`, the GI50 is 2.98 µM (inactive) in the assay on LXFL 529; 7.96 µM (inactive) in the assay with RXF 631; 3.28 µM (inactive) with DLD-1; 13.2 µM (inactive) in the assay on HOP-18; 20.8 µM (inactive) in the assay with SNB-78; 11.4 µM (inactive) in the assay on DMS-114. Moreover, the GI50 in the assay on DMS-273 was 3.71 µM (inactive); in the assay on KM-20L2, 2.19 µM (inactive).
For `Cc1nc2c(nc1C)C(=O)c1cc(O)ccc1C2=O`, the GI50 in the assay with LXFL 529 is > 100 µM (inactive); with DLD-1 it was > 51.3 µM (inactive); in the assay on HOP-18, > 100 µM (inactive); with SNB-78 it was > 100 µM (inactive); in the assay on DMS-114, 37.2 µM (inactive); with DMS-273, > 59 µM (inactive). The GI50 with KM-20L2 was 57.4 µM (inactive).
In the case of `Cc1c(C#N)c(=O)[nH]c(=O)n1CCN1CCN(C(=O)NCCCCCCNC(=O)N2CCN(CCn3c(C)c(C#N)c(=O)[nH]c3=O)CC2)CC1`, the GI50 in the assay on LXFL 529, in the assay on XF498, with DLD-1, with HOP-18, with SNB-78 and in the assay with DMS-114 was > 100 µM (inactive) throughout. The GI50 in the assay with DMS-273 and in the assay with KM-20L2 was > 100 µM (inactive) each time.
In the case of `N#Cc1cccc(C2C(=O)c3ccc(C(=O)c4ccc5c(c4)C(=O)N(c4ccc(Oc6ccc(N7C(=O)c8ccc(C(=O)c9ccc%10c(c9)C(=O)N(c9cccc(C#N)c9)C%10=O)cc8C7=O)cc6)cc4)C5=O)cc3C2=O)c1` (centres undefined), the GI50 with LXFL 529, in the assay on XF498, in the assay on RXF 631, in the assay with DLD-1, in the assay on DMS-114 and in the assay with DMS-273 was > 100 µM (inactive) each time. Also, the GI50 in the assay with KM-20L2 was > 100 µM (inactive).
Turning to `CCCCNC(=S)Nn1c(-c2ccccc2)nc2ccccc2c1=O`, the GI50 in the assay with LXFL 529 was > 100 µM (inactive); in the assay with DLD-1 it was > 100 µM (inactive); with HOP-18 it was > 100 µM (inactive); in the assay with DMS-114 it was 87.3 µM (inactive); in the assay with DMS-273 it was > 100 µM (inactive).
Regarding `N[C@H](C(=O)O)[C@@H](Cl)CC(=O)O`, the GI50 in the assay with LXFL 529, in the assay with XF498, with DLD-1, in the assay on HOP-18, in the assay with SNB-78 and with DMS-114 was > 100 µM (inactive) throughout. The GI50 with DMS-273 and with KM-20L2 was > 100 µM (inactive) in each case.
On to `Cc1cc(C)c(S(=O)(=O)ONC(=O)OC(C)(C)C)c(C)c1`, for which the GI50 in the assay on LXFL 529, in the assay on XF498, with RXF 631, in the assay on DLD-1, with SNB-78 and with DMS-273 was > 100 µM (inactive) in each case.
For `O=[N+]([O-])c1ccc2nc(/C(=N/Nc3ccccc3)C(O)c3ccco3)c(O)nc2c1` (centres undefined), the GI50 with LXFL 529 is 42.1 µM (inactive); with XF498, > 100 µM (inactive); in the assay on RXF 631, > 100 µM (inactive); in the assay on DLD-1, > 100 µM (inactive); with DMS-114 it was 40 µM (inactive); in the assay on DMS-273, > 100 µM (inactive). For the same compound, the GI50 in the assay on KM-20L2 was 24.5 µM (inactive).
Turning to `Nn1c(-c2ccccc2)nc2ccc(Br)cc2c1=O`, the GI50 in the assay with LXFL 529 is 34 µM (inactive); with XF498, 13.7 µM (inactive); in the assay with RXF 631 it was 59 µM (inactive); in the assay with DLD-1, 35.3 µM (inactive); in the assay on HOP-18, 17.5 µM (inactive); in the assay on SNB-78 it was 85.7 µM (inactive). For the same compound, the GI50 in the assay on DMS-114 is 31.8 µM (inactive); with DMS-273, 40.2 µM (inactive); with KM-20L2, > 100 µM (inactive).
`C[Si](C)(C)/N=C1\N2C(=NC1(C(F)(F)F)C(F)(F)F)Sc1ccccc12`: the GI50 in the assay on LXFL 529, with XF498, in the assay with RXF 631, in the assay with DLD-1, with HOP-18 and with SNB-78 was > 50 µM (inactive) each time. The GI50 in the assay with DMS-114, with DMS-273 and with KM-20L2 was > 50 µM (inactive) throughout.
On to `NC(=O)C(=O)C1CCC2=C(Sc3ccccc3N2)C1=O` (centres undefined), for which the GI50 in the assay on LXFL 529, with RXF 631, in the assay with DLD-1, in the assay on SNB-78, with DMS-114 and in the assay on KM-20L2 was > 100 µM (inactive) each time.
Consider `COC(=O)C1(C(=O)OC)CC(=O)c2cc3c(cc2-c2c(cc(OC)c(OC)c2OC)C1)OCO3`, for which the GI50 with LXFL 529 was 137 µM (inactive); with RXF 631 it was > 211 µM (inactive); with DLD-1, > 211 µM (inactive); in the assay on HOP-18 it was 0.0211 µM (active); in the assay on DMS-273, 124 µM (inactive); in the assay on KM-20L2, > 211 µM (inactive).
In the case of `CN(C)c1nc(N(C)C)n2nc(-c3ccccc3[N+](=O)[O-])nc2n1`, the GI50 in the assay on LXFL 529 is 86.3 µM (inactive); with XF498, > 100 µM (inactive); in the assay on DLD-1 it was 48.5 µM (inactive); in the assay on HOP-18, > 100 µM (inactive); in the assay with SNB-78 it was > 100 µM (inactive); in the assay with DMS-114, > 100 µM (inactive). Further, the GI50 with DMS-273 is 33.5 µM (inactive); in the assay on KM-20L2, > 100 µM (inactive).
`CC1CC(=O)c2c(ccc3c2C(=O)c2cccc(O)c2C3=O)C1` (centres undefined): the GI50 in the assay on LXFL 529 was 4.31 µM (inactive); in the assay on XF498 it was 12.6 µM (inactive); with RXF 631, 13.2 µM (inactive); in the assay on DLD-1, 2.94 µM (inactive); in the assay with HOP-18 it was 6.58 µM (inactive); with SNB-78, 7.29 µM (inactive). In addition, the GI50 in the assay with DMS-114 was 6.38 µM (inactive); in the assay with DMS-273, 4.48 µM (inactive).
Consider `C[Si](C)(C)/C=C/CCC(C=O)(CCCl)c1ccccc1` (centres undefined), for which the GI50 with LXFL 529 was 30.1 µM (inactive); in the assay with XF498, 18.7 µM (inactive); in the assay with DLD-1, 29.5 µM (inactive); in the assay with HOP-18, 27.4 µM (inactive); in the assay on SNB-78, 23.8 µM (inactive); in the assay with DMS-114, 19.5 µM (inactive). In addition, the GI50 in the assay on DMS-273 is 19.4 µM (inactive); in the assay with KM-20L2 it was 28.8 µM (inactive).
For `O=C1C(Cl)C(c2cccc(O)c2)N1n1cnc2ccccc2c1=O` (centres undefined), the GI50 is > 100 µM (inactive) with LXFL 529; > 100 µM (inactive) in the assay on XF498; > 100 µM (inactive) with DLD-1; 39.9 µM (inactive) in the assay on HOP-18; > 100 µM (inactive) in the assay with SNB-78; > 100 µM (inactive) in the assay with DMS-114. The GI50 in the assay on DMS-273 and in the assay with KM-20L2 was > 100 µM (inactive) in each case.
`Cc1cccc(-c2nnc3s/c(=C\c4ccc(N(C)C)cc4)c(=O)n23)c1`: the GI50 in the assay with LXFL 529, with XF498, in the assay with DLD-1, in the assay on HOP-18, with SNB-78 and with DMS-273 was > 100 µM (inactive) each time. For the same compound, in the assay with KM-20L2, the GI50 was > 100 µM (inactive).
Regarding `O=C(Nc1ccc(F)cc1)C(=O)C(C1OC(=O)c2ccccc21)[N+](=O)[O-]` (centres undefined), the GI50 in the assay on LXFL 529, in the assay with XF498, in the assay with DLD-1, in the assay on SNB-78, in the assay on DMS-114 and in the assay on KM-20L2 was > 100 µM (inactive) in each case.
As to `COc1ccccc1NC(=O)C1=C(C)NC(C)=C(C(=O)Nc2ccccc2OC)C1c1ccc(C)cc1`, the GI50 was 74.1 µM (inactive) with LXFL 529; 24.3 µM (inactive) with XF498; 76 µM (inactive) with HOP-18; 56.5 µM (inactive) with SNB-78; 51.9 µM (inactive) in the assay with DMS-114; 40 µM (inactive) in the assay with DMS-273. For the same compound, in the assay with KM-20L2, the GI50 is > 100 µM (inactive).
As to `CCCC(O)c1ccc2[nH]c3c(C)cc([N+](=O)[O-])c(C)c3c2c1` (centres undefined), the GI50 with XF498 was > 100 µM (inactive); in the assay with DLD-1 it was 54.1 µM (inactive); with HOP-18, > 100 µM (inactive); with SNB-78, > 100 µM (inactive); in the assay on DMS-114, > 100 µM (inactive); with DMS-273 it was 21.3 µM (inactive).
In the case of `O=C(Oc1ccc2c(-c3ccccc3)c(C(=O)Nc3ccc(Cl)cc3)c(=O)oc2c1)c1ccccc1`, the GI50 in the assay on XF498 was 58.1 µM (inactive); in the assay with DLD-1 it was > 100 µM (inactive); in the assay on HOP-18 it was > 100 µM (inactive); with DMS-114, 65.3 µM (inactive); with DMS-273, > 100 µM (inactive); in the assay with KM-20L2, > 100 µM (inactive).
On to `CCOC(=O)C(CC/C=C\c1ccccc1)N1CCC[C@H]1C(=O)OC` (some centres undefined), for which the GI50 was > 100 µM (inactive) in the assay with LXFL 529; > 100 µM (inactive) with XF498; > 100 µM (inactive) with DLD-1; > 100 µM (inactive) in the assay with HOP-18; > 100 µM (inactive) in the assay with SNB-78; 59.6 µM (inactive) in the assay on DMS-114. Further, the GI50 in the assay with DMS-273 and with KM-20L2 was > 100 µM (inactive) each time.
Turning to `COC1=CC(=O)[C@]2(C)[C@H](C1=O)C(C)[C@H]2c1ccc(OC)cc1` (some centres undefined), the GI50 with LXFL 529, in the assay on XF498, in the assay with DLD-1, in the assay on SNB-78 and with DMS-273 was > 100 µM (inactive) in each case.
Regarding `COc1cccc2c1C(=N)c1c(O)c3c(c(O)c1C2=O)C[C@@](O)(C(C)=O)C[C@@H]3OC1CC(N)C(O)C(C)O1` (some centres undefined), the GI50 is 0.542 µM (active) in the assay with LXFL 529; 0.202 µM (active) in the assay on XF498; 0.728 µM (active) with RXF 631; 2.2 µM (inactive) in the assay on DLD-1; 0.428 µM (active) in the assay with HOP-18; 2 µM (inactive) with SNB-78. For the same compound, the GI50 in the assay on DMS-114 was 0.148 µM (active); in the assay on DMS-273 it was 0.0766 µM (active); with KM-20L2 it was 0.000374 µM (active).
Consider `Nc1nc(O)c2[nH]nnc2n1` [8-AZAGUANINE], for which the GI50 in the assay on LXFL 529 is 16.3 µM (inactive); in the assay with DLD-1, 20 µM (inactive); with HOP-18, 0.339 µM (active); with SNB-78 it was 1.02 µM (active); in the assay with DMS-114, 6.5 µM (inactive); with DMS-273 it was 0.634 µM (active). Besides, the GI50 in the assay with KM-20L2 is 9.2 µM (inactive).
